In patent US20180303809A1, “TREATMENT OF BURN PAIN BY TRPV1 MODULATORS” (Purdue Pharma L.P., priority 2013, published 2018):

Key:
Type in all cases: in vivo, rat
male Sprague-Dawley rats [1] = experiment: Paw pressure assay, mechanical hyperalgesia (PWT) in thermal burn pain model; conditions: rat burn injury 55° C. 24 s, 10 mg/kg PO
Description: (§1) Test Animals: Each experiment used male Sprague-Dawley rats weighing between 190-260 g at the time of thermal burn injury. The rats were housed two per cage, and were allowed to acclimate to their environment for at least six days before testing began. The rats had free access to food and water at all times, except during testing and prior to oral (PO) administration of a test compound, when food was removed about 16 hours before dosing. The rats were divided into treatment groups, and one of the following compounds was administered to each group at the dose and by the route of administration indicated in Tables 5.2A to 5.2C, 5.3A and 5.3B, and 5.4A and 5.4B: ketorolac (Sigma-Aldrich, St. Louis, Mo.), AMG 517 (selective TRPV1 antagonist described in Em. Doherty et al., “Novel vanilloid receptor-1 antagonists:2. Structure-activity relationships of 4-oxopyrimidines leading to the selection of a clinical candidate,” J Med Chem 50:3515-3527 (2007).) (Purdue Pharma L. P., Cranbury, N.J.), indomethacin (Alexis Biochemicals, Farmingdale, N.Y.), gabapentin (Bosche Scientific, New Brunswick, N.J.), or (S)-3-chloro-5-(1,2-dihydroxyethyl)-N-(5-(trifluoromethyl)pyridin-2-yl)-5′,6′-dihydro-[2,4′-bipyridine]-1′(2′H)-carboxamide (Compound 1). The control groups were administered the vehicle for the compound of formula (I). The volume of administration for PO treatment was 5 ml/kg, and was the same for all treatment groups. Volume of administration for intraperitoneal (i.p.) drug administration was 2 ml/kg.
(§2) To assess the actions of a compound of formula (I) for the treatment or prevention of burn pain, a model of thermal burn pain was used. A thermal burn injury was induced under isofluorane/O2 inhalation anesthesia. To assess mechanical hyperalgesia and weight bearing, a thermal injury was produced by immersing the left hind paw into water maintained at 55° C. for 24 seconds. The left hind paw of non-injured control animals was immersed in 22° C. water for 24 seconds. To assess thermal hyperalgesia, a thermal injury was produced by immersing the left hindpaw into water maintained at 50° C. for 48 seconds; the left hind-paw of non-injured control animals was immersed in 22° C. water for 48 seconds. The animals were assessed for response to noxious mechanical stimuli by determining PWT for mechanical hyperalgesia, weight bearing difference between the injured or non-injured side, or response to noxious thermal stimuli by determining PWL for thermal hyperalgesia, all as described below, prior to drug administration (baseline), then again at 1, 3 and 5 hours after induction of burn injury.
The paw pressure assay was used to assess mechanical hyperalgesia. For this assay, hind paw withdrawal thresholds (PWT) to a noxious mechanical stimulus were determined using an analgesimeter (Model 7200, commercially available from Ugo Basile of Italy) as described in C. Stein, “Unilateral Inflammation of the Hindpaw in Rats as a Model of Prolonged Noxious Stimulation: Alterations in Behavior and Nociceptive Thresholds,” Pharmacol. Biochem. and Behavior 31:451-455 (1988). The rat's paw was placed on a small platform, and weight was applied in a graded manner up to a maximum of 250 grams. The endpoint was taken as the weight at which the paw was completely withdrawn. PWT was determined once for each rat at each time point, wherein the affected (ipsilateral; same side as the injury) rear paw was tested. […] All drug treatment groups were compared to the vehicle control group (i.e. injured, administered only the vehicle).

male Sprague-Dawley rats [2] = experiment: Plantar test, thermal hyperalgesia (PWL) in thermal burn pain model; conditions: rat burn injury 50° C. 48 s
Description: as §1, §2
The plantar test was used to assess thermal hyperalgesia. For this test, hind paw withdrawal latencies (PWL) to a noxious thermal stimulus were determined using a plantar test apparatus (commercially available from Ugo Basile of Italy) following the technique described by K. Hargreaves et al., “A New and Sensitive Method for Measuring Thermal Nociception in Cutaneous Hyperalgesia,” Pain 32(1):77-88 (1988). The maximum exposure time was set at 32 seconds to avoid tissue damage and any directed paw withdrawal from the heat source is taken as the end point. Three latencies were determined at each time point and averaged.

male Sprague-Dawley rats [3] = experiment: Hind limb weight bearing (incapacitance meter, % WL) in thermal burn pain model; conditions: rat burn injury 55° C. 24 s, 10 mg/kg PO
Description: as §1, §2
A commercially available incapacitance meter was used to determine the weight distribution on the two hind paws of the animal (Linton Incapacitance Tester (Linton Instrumentation, Norfolk, UK)). The weight bearing difference (WBD) between the injured and non-injured hindpaw was measured. The animal was placed in the testing chamber that allows the animal to stand normally, distributing its body weight on the hind limbs for the test. Each hind paw was positioned on a separate pressure sensitive pad, which independently measures the pressure applied by each limb. The device continuously collects data after either a force threshold has been exceeded, or the investigator depresses the start pad. Rats were allowed to acclimate when placed on the apparatus, and when they were stationary, the force exerted was then continuously monitored for 3 s. The endpoint was the amount of pressure applied to each limb over time. Three readings were taken for each rat at each time point, and the average used for data analysis. WBD was expressed as “% WL”, i.e. the percentage of weight borne on the burn-injured left hind paw, using the following formula: […]
where WLP is the weight on the left hind paw and WRP is the weight on the right (untreated) hind paw. The 50% value of % WL corresponds to an equal weight distribution across both hind paws. […]

[4] = baseline (prior to drug administration)
[5] = 10 mg/kg PO, 1 h after administration
[6] = 10 mg/kg PO, 3 h after administration
[7] = 10 mg/kg PO, 5 h after administration
[8] = 30 mg/kg PO, 1 h after administration
[9] = 30 mg/kg PO, 3 h after administration
[10] = 30 mg/kg PO, 5 h after administration

## O=C(c1ccccc1)c1ccc2n1CCC2C(=O)O (stereo not shown) [Ketorolac, ketorolac]
Male Sprague-Dawley rats [1]; 1 h after administration
  % Decrease from Baseline (mean ± S.E.M.) of Paw Withdrawal Threshold: 66 ± 2.2%
  Paw Withdrawal Threshold (g) (mean ± S.E.M.): 84 ± 6.1 g
Male Sprague-Dawley rats [1]; 3 h after administration
  % Decrease from Baseline (mean ± S.E.M.) of Paw Withdrawal Threshold: 60 ± 3.8%
  Paw Withdrawal Threshold (g) (mean ± S.E.M.): 97 ± 7.5 g
Male Sprague-Dawley rats [1]; 5 h after administration
  % Decrease from Baseline (mean ± S.E.M.) of Paw Withdrawal Threshold: 63 ± 34%
  Paw Withdrawal Threshold (g) (mean ± S.E.M.): 91 ± 7.1 g
Male Sprague-Dawley rats [1]; [4]
  Paw Withdrawal Threshold (g) (mean ± S.E.M.): 246 ± 4.5 g
Male Sprague-Dawley rats [2]; [5]
  % Change from Baseline (mean ± S.E.M.) of Paw Withdrawal Latency: −22.3 ± 6.30%
  Paw Withdrawal Latency (sec) (mean ± S.E.M.): 9.2 ± 0.96 s
Male Sprague-Dawley rats [2]; [6]
  % Change from Baseline (mean ± S.E.M.) of Paw Withdrawal Latency: −6.7 ± 5.55%
  Paw Withdrawal Latency (sec) (mean ± S.E.M.): 11.9 ± 1.27 s
Male Sprague-Dawley rats [2]; [7]
  % Change from Baseline (mean ± S.E.M.) of Paw Withdrawal Latency: −10.2 ± 3.05%
  Paw Withdrawal Latency (sec) (mean ± S.E.M.): 11.4 ± 0.54 s
Male Sprague-Dawley rats [2]; 10 mg/kg PO, baseline (prior to drug administration)
  Paw Withdrawal Latency (sec) (mean ± S.E.M.): 13.2 ± 0.72 s
Male Sprague-Dawley rats [2]; [8]
  % Change from Baseline (mean ± S.E.M.) of Paw Withdrawal Latency: −47.6 ± 19.35%
  Paw Withdrawal Latency (sec) (mean ± S.E.M.): 8.5 ± 0.89 s
Male Sprague-Dawley rats [2]; [9]
  % Change from Baseline (mean ± S.E.M.) of Paw Withdrawal Latency: −24.0 ± 19.85%
  Paw Withdrawal Latency (sec) (mean ± S.E.M.): 12.6 ± 1.33 s
Male Sprague-Dawley rats [2]; [10]
  % Change from Baseline (mean ± S.E.M.) of Paw Withdrawal Latency: −10.2 ± 12.40%
  Paw Withdrawal Latency (sec) (mean ± S.E.M.): 14.3 ± 0.80 s
Male Sprague-Dawley rats [2]; 30 mg/kg PO, baseline (prior to drug administration)
  Paw Withdrawal Latency (sec) (mean ± S.E.M.): 14.7 ± 1.29 s
Male Sprague-Dawley rats [3]; 1 h after administration
  % WL (mean ± S.E.M.), percentage of weight borne on the burn-injured left hind paw: 50.0 ± 2.20 %
Male Sprague-Dawley rats [3]; 3 h after administration
  % WL (mean ± S.E.M.), percentage of weight borne on the burn-injured left hind paw: 42.6 ± 1.91%
Male Sprague-Dawley rats [3]; 5 h after administration
  % WL (mean ± S.E.M.), percentage of weight borne on the burn-injured left hind paw: 40.1 ± 2.72%
Male Sprague-Dawley rats [3]; [4]
  % WL (mean ± S.E.M.), percentage of weight borne on the burn-injured left hind paw: 49.8 ± 0.31%
